Results as given in the supplement of paper PMC11208160.

Assay: recombinant UMI read abundance after kanamycin selection (control-corrected) (log10(CPM+1)); higher = more efficient recombination; extreme values may be limits of the assay; sequences stand for … in AGTGCAGAGAAAATCGGCCAGTTTTCTCTGCCTGCAGTCCGCATGCCGTGGGACCCCTTGGGTTCTAACCTGTTGCCTAGATTTATGCAGCGGACTGCCTTTCTCCCAAAGTGATAAACCGG…AGGTTGGTTTCACT; site = the 11-nt donor
How it was run: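 Counts of recombinant UMIs were reported as log10(CPM+1). Before that, they were converted to CPM, averaged over replicates and scaled using control-derived factors. They came from PCR across the donor–target junction after Escherichia coli carrying the pair library and target plasmid was plated on IPTG (0.07 mM) plus kanamycin, or unselected, in two replicates each.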
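Also: IS621 bridge recombinase in Escherichia coli cells against a fixed T5 target plasmid.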

Sequence | recombinant UMI read abundance (log10)
GGGGCACCATGGACCGGTTTTCCCGGTAATCCGTATTTGCA (site GGGGCCCCTTG) | 0.0249
GGGGCACCATGGACCGGTTTTCCCGGTAATCCGTATTTGCA (site GGGGCGCCTTG) | 0.0148
GGGGCACCATGGACCGGTTTTCCCGGTAATCCGTATTTGCA (site GGGGCTCCTTG) | 0
GGGGCACCATGGACCGGTTTTCCCGGTAATCCGTATTTGCA (site GGGGGACCTTG) | 0
GGGGCACCATGGACCGGTTTTCCCGGTAATCCGTATTTGCA (site GGGGTACCTTG) | 0
GGGGCACCATGGACCGGTTTTCCCGGTAATCCGTATTTGCA (site GGGTCACCTTG) | 0.0044
GGGGCACCATGGACCGGTTTTCCCGGTAATCCGTATTTGCA (site GGTGCACCTTG) | 0
GGGGCACCATGGACCGGTTTTCCCGGTAATCCGTATTTGCA (site GTGGCACCTTG) | 0.0102
GGGGCACCATGGACCGGTTTTCCCGGTAATCCGTATTTGCA (site TGGGCACCTTG) | 0.00982
GGGTCACCATGGACCGGTTTTCCCGGTAATCCGTATTTGCC (site GGGTCACCTGG) | 0
GGTAATCCATGGACCGGTTTTCCCGGTAATCCGTATTTGTT (site CGGAATCCTAA) | 0.0139
GGTAATCCATGGACCGGTTTTCCCGGTAATCCGTATTTGTT (site GGTAATCCTAA) | 0.518
GGTACACCATGGACCGGTTTTCCCGGTAATCCGTATTTGAC (site AGTACACCTGT) | 0
GGTACACCATGGACCGGTTTTCCCGGTAATCCGTATTTGAC (site CGTACACCTGT) | 0
GGTACACCATGGACCGGTTTTCCCGGTAATCCGTATTTGAC (site GGTACACCTGT) | 0
GGTACACCATGGACCGGTTTTCCCGGTAATCCGTATTTGAC (site TGTACACCTGT) | 0

Sequence | recombinant UMI read abundance (log10)
GGTACCTCATGGACCGGTTTTCCCGGTAATCCGTATTTGAG (site GGTACCTCTCT) | 0.374
GGTACCTCATGGACCGGTTTTCCCGGTAATCCGTATTTGTT (site GGTACATCTAA) | 0.0159
GGTACCTCATGGACCGGTTTTCCCGGTAATCCGTATTTGTT (site GGTACCTCTAA) | 0.187
GGTACCTCATGGACCGGTTTTCCCGGTAATCCGTATTTGTT (site GGTACGTCTAA) | 0.014
GGTACCTCATGGACCGGTTTTCCCGGTAATCCGTATTTGTT (site GGTACTTCTAA) | 0.00378
GGTAGAACATGGACCGGTTTTCCCGGTAATCCGTATTTGGC (site GATAGAACTGC) | 0
GGTAGAACATGGACCGGTTTTCCCGGTAATCCGTATTTGGC (site GCTAGAACTGC) | 0
GGTAGAACATGGACCGGTTTTCCCGGTAATCCGTATTTGGC (site GGTAGAACTGC) | 0.973
GGTAGAACATGGACCGGTTTTCCCGGTAATCCGTATTTGGC (site GTTAGAACTGC) | 0
GGTATACCATGGACCGGTTTTCCCGGTAATCCGTATTTGGT (site GGTATACCTAC) | 0.00474
GGTATTTCATGGACCGGTTTTCCCGGTAATCCGTATTTGCC (site GGTATTTCTGG) | 0
GGTCCACCATGGACCGGTTTTCCCGGTAATCCGTATTTGCT (site GGTCCACCTAG) | 0
GGTCGGACATGGACCGGTTTTCCCGGTAATCCGTATTTGCG (site GGTCGGACTCG) | 1.29
GGTCTGTCATGGACCGGTTTTCCCGGTAATCCGTATTTGAA (site GGTCTGTCTTT) | 0.0119
GGTCTTACATGGACCGGTTTTCCCGGTAATCCGTATTTGAG (site GGTCTTACTCT) | 0.0687
GGTGCACCATGGACCGGTTTTCCCGGTAATCCGTATTTGCA (site GGAGCACCTTG) | 0.00431
